Assay results from PubChem BioAssay AID1918954 (Molecular Pharmacology Branch, DTP, NCI, 2023).
Values joined by “and” are separate entries in the source; they are usually repeats but may differ in a detail not shown here. Equal values may be shown once.

Test system: MDA-MB-468 complex spheroids with HUVEC/MSC, viability
Test: Anticancer human tumor MDA-MB-468 cell line growth inhibition;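 further: spheroids exposed to agents for seven days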;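 on viability, T/C: 100% = DMSO vehicle control viability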
Conditions: for viability, T/C: stronger effect = lower value
How it was run: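 Drug combinations with the LSD1 inhibitor iadademstat tested on tumor cells co-cultured as spheroids with endothelial cells and mesenchymal stem cells. Concentrations descended in half-log increments from clinical Cmax or 10 microM.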

[1] = curve of first compound, second compound 0.1 µM
[2] = curve of first compound, second compound 0.316 µM
[3] = curve of first compound, second compound 1 µM
[4] = curve of first compound, second compound 3.16 µM
[5] = curve of first compound, second compound 10 µM
[6] = second compound 0.1 µM, first compound 0.000949 µM
[7] = second compound 0.1 µM, first compound 0.003 µM
[8] = second compound 0.1 µM, first compound 0.00949 µM
[9] = second compound 0.1 µM, first compound 0.03 µM
[10] = second compound 0.1 µM, first compound 0.0949 µM
[11] = second compound 0.1 µM, first compound 0.3 µM
[12] = second compound 0.316 µM, first compound 0.000949 µM
[13] = second compound 0.316 µM, first compound 0.003 µM
[14] = second compound 0.316 µM, first compound 0.00949 µM
[15] = second compound 0.316 µM, first compound 0.03 µM
[16] = second compound 0.316 µM, first compound 0.0949 µM
[17] = second compound 0.316 µM, first compound 0.3 µM
[18] = second compound 1 µM, first compound 0.000949 µM
[19] = second compound 1 µM, first compound 0.003 µM
[20] = second compound 1 µM, first compound 0.00949 µM
[21] = second compound 1 µM, first compound 0.03 µM
[22] = second compound 1 µM, first compound 0.0949 µM
[23] = second compound 1 µM, first compound 0.3 µM
[24] = second compound 3.16 µM, first compound 0.000949 µM
[25] = second compound 3.16 µM, first compound 0.003 µM
[26] = second compound 3.16 µM, first compound 0.00949 µM
[27] = second compound 3.16 µM, first compound 0.03 µM
[28] = second compound 3.16 µM, first compound 0.0949 µM
[29] = second compound 3.16 µM, first compound 0.3 µM
[30] = second compound 10 µM, first compound 0.000949 µM
[31] = second compound 10 µM, first compound 0.003 µM
[32] = second compound 10 µM, first compound 0.00949 µM
[33] = second compound 10 µM, first compound 0.03 µM
[34] = second compound 10 µM, first compound 0.0949 µM
[35] = second compound 10 µM, first compound 0.3 µM

## Nc1ccn(C2OC(CO)C(O)C2(F)F)c(=O)n1 (stereo not drawn) + NC1CCC(NC2CC2c2ccccc2)CC1
[1]
  IC50: < 0.949 nM
[2]
  IC50: < 0.949 nM
[3]
  IC50: < 0.949 nM
[4]
  IC50: < 0.949 nM
[5]
  IC50: < 0.949 nM
[6]
  viability, T/C: 5.76%
[7]
  viability, T/C: 4.85%
[8]
  viability, T/C: 5.57%
[9]
  viability, T/C: 4.54%
[10]
  viability, T/C: 4.56%
[11]
  viability, T/C: 5.13%
[12]
  viability, T/C: 5.33%
[13]
  viability, T/C: 5.22%
[14]
  viability, T/C: 5.23%
[15]
  viability, T/C: 4.88%
[16]
  viability, T/C: 5.47%
[17]
  viability, T/C: 5.64%
[18]
  viability, T/C: 6.43%
[19]
  viability, T/C: 6.38%
[20]
  viability, T/C: 5.41%
[21]
  viability, T/C: 4.34%
[22]
  viability, T/C: 4.71%
[23]
  viability, T/C: 5.55%
[24]
  viability, T/C: 6.65%
[25]
  viability, T/C: 5.98%
[26]
  viability, T/C: 5.78%
[27]
  viability, T/C: 5.89%
[28]
  viability, T/C: 4.69%
[29]
  viability, T/C: 5.66%
[30]
  viability, T/C: 7.63%
[31]
  viability, T/C: 6.29%
[32]
  viability, T/C: 6.52%
[33]
  viability, T/C: 7.12%
[34]
  viability, T/C: 5.35%
[35]
  viability, T/C: 5.45%

## O=C(C=Cc1cccc(S(=O)(=O)Nc2ccccc2)c1)NO
Compound 0.00949 µM
  viability, T/C: 80.6% and 78.8%
Compound 0.03 µM
  viability, T/C: 72.8% and 67.2%
Compound 0.0949 µM
  viability, T/C: 44.4% and 25.1%
Compound 0.3 µM
  viability, T/C: 17.5% and 2.5%
Compound 0.949 µM
  viability, T/C: 4.34% and 0.22%
Curve of compound
  IC50: 75.6 nM and 52 nM

## O=C(c1cc(Cc2n[nH]c(=O)c3ccccc23)ccc1F)N1CCN(C(=O)C2CC2)CC1
Compound 0.0316 µM
  viability, T/C: 94.3% and 76.8%
Compound 0.1 µM
  viability, T/C: 73.5% and 79.1%
Compound 0.316 µM
  viability, T/C: 75% and 69.3%
Compound 1 µM
  viability, T/C: 52.9% and 52.6%
Compound 3.16 µM
  viability, T/C: 21.7% and 20.2%
Compound 10 µM
  viability, T/C: 22.6% and 21.4%
Curve of compound
  IC50: 989 nM and 1050 nM

## CCc1c2c(nc3ccc(O)cc13)-c1cc3c(c(=O)n1C2)COC(=O)[C@]3(O)CC + NC1CC1c1ccc(-c2cccc(O)c2)cc1
[1]
  IC50: < 0.949 nM
[2]
  IC50: < 0.949 nM
[3]
  IC50: < 0.949 nM
[4]
  IC50: < 0.949 nM
[5]
  IC50: < 0.949 nM
[6]
  viability, T/C: 4.36%
[7]
  viability, T/C: 3.78%
[8]
  viability, T/C: 2.14%
[9]
  viability, T/C: 0.44%
[10]
  viability, T/C: 0.43%
[11]
  viability, T/C: 0.53%
[12]
  viability, T/C: 4.17%
[13]
  viability, T/C: 3.69%
[14]
  viability, T/C: 1.95%
[15]
  viability, T/C: 0.43%
[16]
  viability, T/C: 0.4%
[17]
  viability, T/C: 0.49%
[18]
  viability, T/C: 3.6%
[19]
  viability, T/C: 3.54%
[20]
  viability, T/C: 2.31%
[21]
  viability, T/C: 0.52%
[22]
  viability, T/C: 0.36%
[23]
  viability, T/C: 0.52%
[24]
  viability, T/C: 4.14%
[25]
  viability, T/C: 3.66%
[26]
  viability, T/C: 2.43%
[27]
  viability, T/C: 0.36%
[28]
  viability, T/C: 0.43%
[29]
  viability, T/C: 0.47%
[30]
  viability, T/C: 4.14%
[31]
  viability, T/C: 3.24%
[32]
  viability, T/C: 2.07%
[33]
  viability, T/C: 0.38%
[34]
  viability, T/C: 0.56%
[35]
  viability, T/C: 0.6%
